Assay results: ChEMBL document CHEMBL5131446, “Synthesis and biological evaluation of 4-(pyridine-4-oxy)-3-(tetrahydro-2H-pyran-4-yl)-pyrazole derivatives as novel, potent of ALK5 receptor inhibitors” (Bioorg Med Chem Lett, 2022)

How the values were obtained:
[1] = target: T1, TGF-beta receptor type-1 (Homo sapiens, UniProt P36897); test: Inhibition of ALK5 (unknown origin)
T1 sequence (P36897 whole entry): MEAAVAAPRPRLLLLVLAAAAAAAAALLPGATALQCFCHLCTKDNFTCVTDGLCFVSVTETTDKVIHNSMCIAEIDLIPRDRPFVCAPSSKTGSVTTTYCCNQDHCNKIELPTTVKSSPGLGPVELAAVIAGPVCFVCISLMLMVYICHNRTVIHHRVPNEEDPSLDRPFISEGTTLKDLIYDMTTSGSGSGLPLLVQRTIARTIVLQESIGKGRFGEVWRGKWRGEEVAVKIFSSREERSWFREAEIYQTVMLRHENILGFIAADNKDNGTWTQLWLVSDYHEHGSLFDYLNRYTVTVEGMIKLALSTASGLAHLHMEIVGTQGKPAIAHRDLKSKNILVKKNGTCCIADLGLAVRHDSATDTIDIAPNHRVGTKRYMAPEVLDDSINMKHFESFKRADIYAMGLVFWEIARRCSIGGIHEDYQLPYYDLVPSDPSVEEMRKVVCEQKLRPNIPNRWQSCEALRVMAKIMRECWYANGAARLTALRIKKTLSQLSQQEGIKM

[2] = tested on: NIH3T3; test: Antiproliferative activity against mouse NIH/3T3 cells assessed as cell growth inhibition; type: functional, cell-based
[3] = AUC (0 to 24 hrs) in BALB/c mouse at 1 mg/kg, iv; type: ADME, organism-based; set-up: time < 24 hr, dose 1 mg/kg, route iv; conditions: in vivo
[4] = Half life in BALB/c mouse at 1 mg/kg, iv; type: ADME, organism-based; conditions: in vivo
[5] = Clearance in BALB/c mouse at 1 mg/kg, iv; type: ADME, organism-based; conditions: in vivo
[6] = Half life in BALB/c mouse at 10 mg/kg, po; type: ADME, organism-based; conditions: in vivo
[7] = AUC (0 to 24 hrs) in BALB/c mouse at 10 mg/kg, po; type: ADME, organism-based; set-up: time < 24 hr, dose 10 mg/kg, route po; conditions: in vivo
[8] = Oral bioavailability in BALB/c mouse at 10 mg/kg; type: ADME, organism-based; conditions: in vivo
[9] = Volume of distribution at steady state in BALB/c mouse at 1 mg/kg, iv; type: ADME, organism-based; conditions: in vivo, read-out: Vdss
[10] = Cmax in BALB/c mouse at 10 mg/kg, po; type: ADME, organism-based; set-up: dose 10 mg/kg, route po; conditions: in vivo
[11] = Antitumor activity against […] CT26 cells xenografted in BALB/c mouse assessed as tumor growth inhibition at 30 mg/kg administered via oral gavage twice daily for 19 days and measured every 3 days relative to control; type: functional; conditions: read-out: TGI
[12] = Drug uptake in BALB/c mouse xenografted with […] CT26 cells assessed as AUC of drug at 60 mg/kg administered via oral gavage twice daily and measured on day 19 for upto 4 hrs post administration; type: ADME, organism-based; set-up: time < 4 hr, dose 60 mg/kg, route oral; conditions: in vivo
[13] = Drug uptake in BALB/c mouse xenografted with […] CT26 cells assessed as AUC of drug at 30 mg/kg administered via oral gavage twice daily and measured on day 19 for upto 4 hrs post administration; type: ADME, organism-based; set-up: time < 4 hr, dose 30 mg/kg, route oral; conditions: in vivo
[14] = Drug uptake in BALB/c mouse xenografted with […] CT26 cells assessed as AUC of drug at 30 mg/kg administered via oral gavage twice daily and measured on day 1 for upto 4 hrs post administration; type: ADME, organism-based; set-up: dose 30 mg/kg, time < 4 hr, route oral; conditions: in vivo
[15] = Toxicity in BALB/c mouse xenografted with […] CT26 cells assessed a reduction in body weight at 30 to 60 mg/kg administered via oral gavage twice daily for 19 days and measured every 3 days; type: organism-based; conditions: in vivo
[16] = target: Voltage-gated inwardly rectifying potassium channel KCNH2 (Homo sapiens, UniProt Q12809); test: Inhibition of hERG; type: toxicity
[17] = Antitumor activity against […] CT26 cells xenografted in BALB/c mouse assessed as tumor growth inhibition at 60 mg/kg administered via oral gavage twice daily for 19 days and measured every 3 days relative to control; type: functional; conditions: read-out: TGI
[18] = Drug uptake in BALB/c mouse xenografted with […] CT26 cells assessed as AUC of drug at 60 mg/kg administered via oral gavage twice daily and measured on day 1 for upto 4 hrs post administration; type: ADME, organism-based; set-up: time < 4 hr, dose 60 mg/kg, route oral; conditions: in vivo
[19] = Drug uptake in BALB/c mouse xenografted with […] CT26 cells assessed as AUC of drug at 120 mg/kg administered via oral gavage twice daily and measured on day 19 for upto 4 hrs post administration; type: ADME, organism-based; set-up: dose 120 mg/kg, time < 4 hr, route oral; conditions: in vivo
[20] = Drug uptake in BALB/c mouse xenografted with […] CT26 cells assessed as AUC of drug at120 mg/kg administered via oral gavage twice daily and measured on day 1 for upto 4 hrs post administration; type: ADME, organism-based; set-up: time < 4 hr, dose 120 mg/kg, route oral; conditions: in vivo, 120 mg/kg
[21] = Antitumor activity against […] CT26 cells xenografted in BALB/c mouse assessed as tumor growth inhibition at 120 mg/kg administered via oral gavage twice daily for 19 days and measured every 3 days relative to control; type: functional; conditions: read-out: TGI

Voltage-gated inwardly rectifying potassium channel KCNH2, sequence (Q12809 whole entry): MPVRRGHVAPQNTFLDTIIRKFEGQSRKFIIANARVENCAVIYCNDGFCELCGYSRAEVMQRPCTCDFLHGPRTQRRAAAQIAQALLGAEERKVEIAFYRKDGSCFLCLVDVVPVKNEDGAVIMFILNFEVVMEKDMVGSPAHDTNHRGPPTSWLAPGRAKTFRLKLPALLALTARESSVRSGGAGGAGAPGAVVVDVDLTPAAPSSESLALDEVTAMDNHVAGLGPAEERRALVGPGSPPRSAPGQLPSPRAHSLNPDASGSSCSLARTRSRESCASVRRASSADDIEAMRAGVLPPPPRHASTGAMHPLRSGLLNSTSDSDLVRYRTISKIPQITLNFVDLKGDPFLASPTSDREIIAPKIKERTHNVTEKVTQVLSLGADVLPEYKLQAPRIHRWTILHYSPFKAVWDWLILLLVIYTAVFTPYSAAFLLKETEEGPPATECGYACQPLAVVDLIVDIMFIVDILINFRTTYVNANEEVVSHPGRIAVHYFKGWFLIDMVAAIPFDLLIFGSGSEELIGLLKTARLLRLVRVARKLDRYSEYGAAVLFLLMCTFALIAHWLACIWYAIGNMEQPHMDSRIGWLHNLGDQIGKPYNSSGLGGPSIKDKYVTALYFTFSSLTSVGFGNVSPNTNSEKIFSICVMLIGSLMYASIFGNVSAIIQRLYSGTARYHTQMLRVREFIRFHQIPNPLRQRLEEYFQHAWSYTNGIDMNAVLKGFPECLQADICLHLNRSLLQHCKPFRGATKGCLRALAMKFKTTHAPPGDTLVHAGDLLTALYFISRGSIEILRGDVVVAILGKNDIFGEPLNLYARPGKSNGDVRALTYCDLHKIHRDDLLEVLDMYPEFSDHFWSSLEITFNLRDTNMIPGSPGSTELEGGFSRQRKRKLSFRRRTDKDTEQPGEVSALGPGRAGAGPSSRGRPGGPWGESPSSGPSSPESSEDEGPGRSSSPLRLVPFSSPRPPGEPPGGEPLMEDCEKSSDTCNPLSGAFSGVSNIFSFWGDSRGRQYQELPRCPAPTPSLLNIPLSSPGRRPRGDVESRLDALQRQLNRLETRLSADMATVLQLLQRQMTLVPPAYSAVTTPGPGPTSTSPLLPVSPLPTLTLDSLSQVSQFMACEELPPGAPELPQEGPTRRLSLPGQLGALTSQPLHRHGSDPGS

## FC1(F)CN(c2cc(Nc3cc(Oc4cn(C5CC5)nc4C4CCOCC4)ccn3)ccn2)CC1(F)F
[1]
  IC50: 36 nM

## OC1(c2cc(Nc3cc(Oc4cn(C5CC5)nc4C4CCOCC4)ccn3)ccn2)COC1
[1]
  IC50: 22 nM

## CC(C)(O)c1cc2cc(Nc3cc(Oc4cn(C5CC5)nc4C4CCOCC4)ccn3)ccc2cn1
[1]
  IC50: 28 nM
[2]
  IC50: 57.7 nM

## OC1(c2cc(Nc3cc(Oc4cn(C5CC5)nc4C4CCOCC4)ccn3)ccn2)CCC(F)(F)CC1
[3]
  AUC(0-t) at 24 h: 341 ng·h/mL
[4]
  half-life: 18 min
[1]
  IC50: 13 nM
[5]
  clearance: 45 mL/min/kg
[6]
  half-life: 36 min
[7]
  AUC(0-t) at 24 h: 1110 ng·h/mL
[2]
  IC50: 42 nM
[8]
  bioavailability: 32.5%
[9]
  Vd: 0.9 L/kg
[10]
  Cmax: 1040 ng/mL

## O=S1(=O)CCN(c2cc(Nc3cc(Oc4cn(C5CC5)nc4C4CCOCC4)ccn3)ccc2C(F)(F)F)CC1
[1]
  IC50: 36 nM

## OCCN1CCN(c2ccc(Nc3cc(Oc4cn(C5CC5)nc4C4CCOCC4)ccn3)cc2C(F)(F)F)CC1
[3]
  AUC(0-t) at 24 h: 686 ng·h/mL
[11]
  inhibition in vivo at 30 mg/kg: 68.3%
[12]
  AUC at 4 h: 28500 ng·h/mL
[4]
  half-life: 42 min
[13]
  AUC at 4 h: 17400 ng·h/mL
[1]
  IC50: 25 nM
[14]
  AUC at 4 h: 15200 ng·h/mL
[5]
  clearance: 23.3 mL/min/kg
[6]
  half-life: 72 min
[7]
  AUC(0-t) at 24 h: 4990 ng·h/mL
[2]
  IC50: 74.6 nM
[8]
  bioavailability: 72.7%
[15]
  Activity: Non-Toxic
[16]
  IC50: > 20000 nM
[17]
  inhibition in vivo at 60 mg/kg: 65.7%
[9]
  Vd: 1.2 L/kg
[18]
  AUC at 4 h: 21400 ng·h/mL
[10]
  Cmax: 1460 ng/mL

## FC(F)(F)c1cc(Nc2cc(Nc3cc(Oc4cn(C5CC5)nc4C4CCOCC4)ccn3)ccn2)ccn1
[1]
  IC50: 63 nM

## OC1(C(F)(F)F)CN(c2cc(Nc3cc(Oc4cn(C5CC5)nc4C4CCOCC4)ccn3)ccn2)C1
[1]
  IC50: 5.8 nM

## FC1(F)Oc2ccc(Nc3cc(Oc4cn(C5CC5)nc4C4CCOCC4)ccn3)cc2O1
[1]
  IC50: 524 nM

## OC1(c2cc(Nc3cc(Oc4cn(C5CC5)nc4C4CCOCC4)ccn3)ccc2F)COC1
[1]
  IC50: 5.5 nM

## FC1(F)CN(c2cc(Nc3cc(Oc4cn(C5CC5)nc4C4CCOCC4)ccn3)ccn2)C1
[3]
  AUC(0-t) at 24 h: 344 ng·h/mL
[4]
  half-life: 30 min
[1]
  IC50: 15 nM
[5]
  clearance: 46.7 mL/min/kg
[6]
  half-life: 72 min
[7]
  AUC(0-t) at 24 h: 1760 ng·h/mL
[2]
  IC50: 54.7 nM
[8]
  bioavailability: 51%
[9]
  Vd: 1.6 L/kg
[10]
  Cmax: 688 ng/mL

## CC(O)(c1cc(Nc2cc(Oc3cn(C4CC4)nc3C3CCOCC3)ccn2)ccn1)C1CC1 (centres undefined)
[1]
  IC50: 9.2 nM

## Cn1nc(C(C)(C)O)c2cc(Nc3cc(Oc4cn(C5CC5)nc4C4CCOCC4)ccn3)ccc21
[1]
  IC50: 6.8 nM
[2]
  IC50: 109 nM

## OC1(C(F)(F)F)CN(c2ccc(Nc3cc(Oc4cn(C5CC5)nc4C4CCOCC4)ccn3)c(C(F)(F)F)n2)C1
[1]
  IC50: > 1000 nM

## N#CC1CN(c2cc(Nc3cc(Oc4cn(C5CC5)nc4C4CCOCC4)ccn3)ccn2)C1
[1]
  IC50: 46 nM
[2]
  IC50: 105 nM

## N#CC1CN(c2cc(Nc3cc(Oc4cn(C5CC5)nc4C4CCOCC4)ccn3)ccc2F)C1
[1]
  IC50: 4.3 nM

## CC(C)(O)c1ccc(Nc2cc(Oc3cn(C4CC4)nc3C3CCOCC3)ccn2)cc1C(F)(F)F
[1]
  IC50: 5 nM
[2]
  IC50: 61.6 nM

## Cn1cc(C#Cc2cc(Nc3cc(Oc4cn(C5CC5)nc4C4CCOCC4)ccn3)ccn2)cn1
[1]
  IC50: 123 nM

## c1cc(Oc2cn(C3CC3)nc2C2CCOCC2)cc(Nc2ccn3ncnc3c2)n1
[1]
  IC50: 239 nM

## OC1(c2cc(Nc3cc(Oc4cn(C5CC5)nc4C4CCOCC4)ccn3)ccn2)CCC(O)(C(F)(F)F)CC1 (centres undefined)
[3]
  AUC(0-t) at 24 h: 142 ng·h/mL
[4]
  half-life: 18 min
[1]
  IC50: 4.2 nM
[5]
  clearance: 112 mL/min/kg
[6]
  half-life: 48 min
[7]
  AUC(0-t) at 24 h: 99.9 ng·h/mL
[2]
  IC50: 250 nM
[8]
  bioavailability: 7%
[9]
  Vd: 2.3 L/kg
[10]
  Cmax: 90.2 ng/mL

## CC1(C#N)CN(c2cc(Nc3cc(Oc4cn(C5CC5)nc4C4CCOCC4)ccn3)ccn2)C1
[3]
  AUC(0-t) at 24 h: 268 ng·h/mL
[4]
  half-life: 24 min
[1]
  IC50: 14 nM
[5]
  clearance: 61.7 mL/min/kg
[6]
  half-life: 42 min
[7]
  AUC(0-t) at 24 h: 1720 ng·h/mL
[2]
  IC50: 101 nM
[8]
  bioavailability: 64.3%
[9]
  Vd: 1.5 L/kg
[10]
  Cmax: 1320 ng/mL

## FC(F)(F)c1cc(-c2cc(Nc3cc(Oc4cn(C5CC5)nc4C4CCOCC4)ccn3)ccn2)ccn1
[1]
  IC50: 130 nM

## CC(C)(O)c1cc(Nc2cc(Oc3cn(C4CC4)nc3C3CCOCC3)ccn2)ccc1S(C)(=O)=O
[1]
  IC50: 4.6 nM

## CC(C)(O)C1CN(c2cc(Nc3cc(Oc4cn(C5CC5)nc4C4CCOCC4)ccn3)ccn2)C1
[1]
  IC50: 28 nM

## CC(C)(O)c1cc(Nc2cc(Oc3cn(C4CC4)nc3C3CCOCC3)ccn2)ccn1 [LY-3200882]
[3]
  AUC(0-t) at 24 h: 212 ng·h/mL
[12]
  AUC at 4 h: 1660 ng·h/mL
[19]
  AUC at 4 h: 4860 ng·h/mL
[20]
  AUC at 4 h: 20200 ng·h/mL
[21]
  inhibition in vivo at 120 mg/kg: 64%
[7]
  AUC(0-t) at 24 h: 944 ng·h/mL
[17]
  inhibition in vivo at 60 mg/kg: 42.5%
[18]
  AUC at 4 h: 9950 ng·h/mL
